Measured values as given in ChEMBL document CHEMBL5241138, “Inhibitors of Interleukin 4 Induced Protein 1 (IL4I1) as Potential Treatment for Cancer” (ACS Med Chem Lett, 2023).
pEC50: −log10 of the molar value.

Target: T1, L-amino-acid oxidase (Homo sapiens, UniProt Q96RQ9)
T1 sequence (Q96RQ9 whole entry): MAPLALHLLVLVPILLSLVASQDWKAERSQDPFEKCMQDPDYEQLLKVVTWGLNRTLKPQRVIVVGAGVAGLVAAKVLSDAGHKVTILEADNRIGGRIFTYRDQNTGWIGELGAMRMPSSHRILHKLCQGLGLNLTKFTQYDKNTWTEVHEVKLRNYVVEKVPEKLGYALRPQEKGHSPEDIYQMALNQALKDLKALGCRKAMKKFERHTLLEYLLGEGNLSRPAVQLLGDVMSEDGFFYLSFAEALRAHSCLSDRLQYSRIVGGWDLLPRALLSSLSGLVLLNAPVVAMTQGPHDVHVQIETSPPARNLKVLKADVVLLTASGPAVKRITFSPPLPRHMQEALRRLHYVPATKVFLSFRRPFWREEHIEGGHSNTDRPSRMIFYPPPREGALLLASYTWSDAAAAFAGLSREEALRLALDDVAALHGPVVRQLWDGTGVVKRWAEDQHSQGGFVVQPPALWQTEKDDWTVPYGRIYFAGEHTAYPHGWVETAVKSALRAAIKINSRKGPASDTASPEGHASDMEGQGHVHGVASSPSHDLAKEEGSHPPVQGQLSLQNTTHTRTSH
Assay: Inhibition of C-terminal 6-His tagged recombinant human IL4I1 (Gln22 to His567 residues) expressed in CHO cells using Phe/Tyr/Trp as substrate assessed as inhibition of H2O2 production measured after 240 mins by Amplex red and horseradish peroxidase based fluorescence assay

Structure (SMILES): O=C1C(=O)N(C2C[C@@H]3C[C@@H]3C2)CCN1Cc1ccc(-c2nccs2)nn1 (stereo partly specified)
- pEC50: 7.64
